# Data: patent publication US11491120B2, “Pharmacological prophylactics against stress-induced affective disorders in females” (The Trustees of Columbia University in the City of New York, priority 2017, dated 2022)
# “Also recorded” adds a separate entry of the source.
# Tests used:
# [1] = system: female 129S6/SvEv mice; assay: Contextual fear conditioning (CFC), 3-shock, freezing in training and context re-exposure; conditions: for Freezing during CFC re-exposure vs saline: vehicle condition; for Freezing during re-exposure to the CFC training context vs saline: single i.p. injection 1 week before 3-shock CFC, all doses; for Freezing during re-exposure to the CFC training context vs saline / Attenuation of learned fear: female mice; for Attenuation of learned fear: single injection 1 week before stressor
# [2] = system: female 129S6/SvEv mice; assay: Forced swim test after 10-day chronic immobilization stress (CIS); assay type: in vivo, mouse; conditions: 10 mg/kg, 1 week prophylactic drug
# Description: The CIS procedure induces a depressive-like phenotype in test subjects and has both predictive and face validity (54). Here, we used an adapted protocol from Ramirez et al. (55).
# As previously tested in male mice (18), we validated our findings in a model of chronic stress. […] Drug dosages were chosen based on results from FIG. 1 and used for the remainder of the project unless otherwise specified. One week later, a 10-day CIS protocol was administered. Subsequently, mice were tested in the FST.
# [3] = Ovariectomized, E2/P4 replacement, 1 week prophylactic drug, Contextual Fear Conditioning Re-exposure, FIG. 10E, Vehicle (hormone) mice, K (10), (2R,6R)-HNK (0.025)
# [4] = Ovariectomized, E2/P4 replacement, 1 week prophylactic drug, Contextual Fear Conditioning Re-exposure, FIG. 10F, Vehicle (hormone) mice, K (10), (2R,6R)-HNK (0.025)
# [5] = Ovariectomized, E2/P4 replacement, 1 week prophylactic drug, Contextual Fear Conditioning Training, FIG. 10D, Vehicle vs E2/P4, same drug, K (10), (2R,6R)-HNK (0.025)
# [6] = Sal vs. K (2.5), Fisher's PLSD, 3 day prophylactic drug/Contextual Fear Conditioning Training
# [7] = Sal vs. K (10), Fisher's PLSD, 1 week prophylactic drug, learned helplessness stress, Contextual Fear Conditioning Re-exposure
# [8] = Sal vs. K (10), Fisher's PLSD, 3 day prophylactic drug/Contextual Fear Conditioning Training
# [9] = Sal vs. K (10), Fisher's PLSD, Stress, antidepressant drug/Contextual Fear Conditioning Training
smiles,measurement,setting,value
"CNC1(c2ccccc2Cl)CCCCC1=O (racemic) [(R,S)-ketamine, (RS)-2-(2-chlorophenyl)-2-(methylamino)cyclohexanone]","p, Freezing (min 1-5), Fisher's PLSD, E2/P4 Sal vs E2/P4 drug","[1]; Ovariectomized, E2/P4 replacement, 1 week prophylactic drug, Contextual Fear Conditioning Re-exposure, FIG. 10E, E2/P4 mice, K (10), (2R,6R)-HNK (0.025)",0.7946
same,"* (significance), Freezing (min 1-5), Fisher's PLSD, Vehicle Sal vs Vehicle drug",[1]; [3],** (** p<0.01)
same,"p, Freezing (min 1-5), Fisher's PLSD, Vehicle Sal vs Vehicle drug",[1]; [3],0.0077
same,"p, Freezing (min 1-5), Fisher's PLSD, Vehicle drug vs E2/P4 drug","[1]; Ovariectomized, E2/P4 replacement, 1 week prophylactic drug, Contextual Fear Conditioning Re-exposure, FIG. 10E, Vehicle vs E2/P4, same drug, K (10), (2R,6R)-HNK (0.025)",0.2095
same,"p, Freezing Average (min 1-5), Fisher's PLSD, E2/P4 Sal vs E2/P4 drug","[1]; Ovariectomized, E2/P4 replacement, 1 week prophylactic drug, Contextual Fear Conditioning Re-exposure, FIG. 10F, E2/P4 mice, K (10), (2R,6R)-HNK (0.025)",0.7946
same,"* (significance), Freezing Average (min 1-5), Fisher's PLSD, Vehicle Sal vs Vehicle drug",[1]; [4],** (** p<0.01)
same,"p, Freezing Average (min 1-5), Fisher's PLSD, Vehicle Sal vs Vehicle drug",[1]; [4],0.0077
same,"p, Freezing Average (min 1-5), Fisher's PLSD, Vehicle drug vs E2/P4 drug","[1]; Ovariectomized, E2/P4 replacement, 1 week prophylactic drug, Contextual Fear Conditioning Re-exposure, FIG. 10F, Vehicle vs E2/P4, same drug, K (10), (2R,6R)-HNK (0.025)",0.2095
same,"p, Freezing (min 1-5), Fisher's PLSD, E2/P4 Sal vs E2/P4 drug","[1]; Ovariectomized, E2/P4 replacement, 1 week prophylactic drug, Contextual Fear Conditioning Training, FIG. 10D, E2/P4 mice, K (10), (2R,6R)-HNK (0.025)",0.5725
same,"p, Freezing (min 1-5), Fisher's PLSD, Vehicle Sal vs Vehicle drug","[1]; Ovariectomized, E2/P4 replacement, 1 week prophylactic drug, Contextual Fear Conditioning Training, FIG. 10D, Vehicle (hormone) mice, K (10), (2R,6R)-HNK (0.025)",0.1466
same,"* (significance), Freezing (min 1-5), Fisher's PLSD, Vehicle drug vs E2/P4 drug",[1]; [5],** (** p<0.01)
same,"p, Freezing (min 1-5), Fisher's PLSD, Vehicle drug vs E2/P4 drug",[1]; [5],0.0004
same,"*, Freezing (min 5)",[1]; [6],* (* p<0.05)
same,"p, Freezing (min 5)",[1]; [6],0.0143
same,"*, Freezing (min 1)",[1]; [7],* (* p<0.05)
same,"p, Freezing (min 1)",[1]; [7],0.0166
same,"*, Freezing (min 5)",[1]; [8],** (** p<0.01)
same,"p, Freezing (min 5)",[1]; [8],0.0078
same,"p, Freezing (min 1-5)",[1]; [9],0.1932
same,"p, Freezing (min 5)",[1]; [9],0.2639
same,"p, Freezing (min 5)","[1]; Sal vs. K (30), Fisher's PLSD, 3 day prophylactic drug/Contextual Fear Conditioning Training",0.0606
same,"Freezing during CFC Training, E2/P4+drug vs vehicle+drug","[1]; ovariectomized mice, hormone replacement",froze significantly more
same,Freezing during CFC re-exposure vs saline,[1]; ovariectomized mice,displayed altered freezing
same,Freezing during CFC re-exposure vs saline,"[1]; ovariectomized mice, listed as (R, S)-ketamine",froze significantly less than saline mice
same,Freezing during re-exposure to the CFC training context vs saline,"[1]; listed as (R, S)-ketamine",did not alter fear encoding or fear retrieval; also recorded: did not alter overall freezing
same,Freezing during re-exposure to the CFC training context vs saline,[1]; listed as Racemic ketamine,do not significantly alter freezing
same,Attenuation of learned fear,[1],do not attenuate learned fear
same,Attenuation of learned fear,"[1]; listed as (R, S)-ketamine",do not attenuate learned fear; also recorded: do not alter learned fear
same,"* (significance), Sal vs. drug, Fisher's PLSD: Immobility Time (min 2), Forced Swim Test Day 2",[2],* (* p<0.05)
same,"* (significance), Sal vs. drug, Fisher's PLSD: Immobility Time (min 5), Forced Swim Test Day 2",[2],** (** p<0.01)
same,"* (significance), Sal vs. drug, Fisher's PLSD: Immobility Time (min 6), Forced Swim Test Day 1",[2],** (** p<0.01)
same,"* (significance), Sal vs. drug, Fisher's PLSD: Immobility Time (min 6), Forced Swim Test Day 2",[2],** (** p<0.01)
same,"* (significance), Sal vs. drug, Fisher's PLSD: Immobility Time Average (min 3-6), Forced Swim Test Day 2",[2],** (** p<0.01)
same,"p, Sal vs. drug, Fisher's PLSD: Immobility Time (min 1), Forced Swim Test Day 1",[2],0.1619
same,"p, Sal vs. drug, Fisher's PLSD: Immobility Time (min 1), Forced Swim Test Day 2",[2],0.0533
same,"p, Sal vs. drug, Fisher's PLSD: Immobility Time (min 2), Forced Swim Test Day 1",[2],0.4051
same,"p, Sal vs. drug, Fisher's PLSD: Immobility Time (min 2), Forced Swim Test Day 2",[2],0.0325
same,"p, Sal vs. drug, Fisher's PLSD: Immobility Time (min 3), Forced Swim Test Day 1",[2],0.5575
same,"p, Sal vs. drug, Fisher's PLSD: Immobility Time (min 4), Forced Swim Test Day 1",[2],0.4015
same,"p, Sal vs. drug, Fisher's PLSD: Immobility Time (min 5), Forced Swim Test Day 1",[2],0.4985
same,"p, Sal vs. drug, Fisher's PLSD: Immobility Time (min 5), Forced Swim Test Day 2",[2],0.0011
same,"p, Sal vs. drug, Fisher's PLSD: Immobility Time (min 6), Forced Swim Test Day 1",[2],0.0022
same,"p, Sal vs. drug, Fisher's PLSD: Immobility Time (min 6), Forced Swim Test Day 2",[2],0.0006
same,"p, Sal vs. drug, Fisher's PLSD: Immobility Time Average (min 3-6), Forced Swim Test Day 2",[2],0.0005
same,"p, Sal vs. drug, Fishers PLSD: Immobility Time Average (min 1-6), Forced Swim Test Day 1",[2],0.1873
